Test results: patent publication US20220380347A1, “INHIBITORS OF CYSTEINE PROTEASES AND METHODS OF USE THEREOF” (Pardes Biosciences, Inc., priority 2020, published 2022)
Read-outs that look alike come from different tables or passages of the source.

How the values were obtained:
[1] = target: COVID-19 (nCoV-2019, SARS-CoV2) Mpro (Severe acute respiratory syndrome coronavirus 2, UniProt P0DTD1); experiment: COVID-19 (nCoV-2019, SARS-CoV2) Mpro enzymatic assay; type: biochemical; settings: 25 nM Mpro, 25 μM substrate; read-out: COVID-19 Mpro IC50
229E Mpro = 229E Mpro (Human coronavirus 229E, UniProt P0C6X1); experiment: 229E Mpro enzymatic assay (standard methods, SARS-CoV2 Mpro assay given as exemplary); type: biochemical, human coronavirus (HCov) 229E
Summary of the method: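 IC50 for 229E Mpro by standard methods; exemplary SARS-CoV-2 protocol used C-His6-tagged Mpro from E. coli, 25 nM enzyme, 25 μM substrate (Km 13.5 μM), in Tris-HCl pH 7.3, NaCl, EDTA, TCEP, 0.1% BSA. Inhibition normalised to no-compound and full-effect controls; four-parameter fit.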

HCov OC43 = experiment: HCoV OC43 cytopathic effect (CPE) assay, CellTiter Glo; type: cell-based, human coronavirus (HCov) OC43
[2] = read-out: OC43 IC50 (uM) MEDIAN, median
[3] = Betacoronavirus 1, OC43, read-out: OC43 IC50 (uM) MEDIAN, median

229E Mpro, sequence (P0C6X1 2966-3267): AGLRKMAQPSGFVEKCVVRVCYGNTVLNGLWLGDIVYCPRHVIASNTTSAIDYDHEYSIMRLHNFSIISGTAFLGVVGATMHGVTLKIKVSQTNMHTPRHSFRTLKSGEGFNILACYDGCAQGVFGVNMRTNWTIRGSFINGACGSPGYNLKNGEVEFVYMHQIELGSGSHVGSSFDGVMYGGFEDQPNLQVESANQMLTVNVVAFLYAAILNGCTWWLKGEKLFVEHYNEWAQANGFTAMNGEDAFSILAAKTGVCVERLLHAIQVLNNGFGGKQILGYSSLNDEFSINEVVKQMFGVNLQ

Structure (SMILES)	IC50 [1] [µM]	EC50 (229E Mpro; 229E Mpro EC50) [µM]	IC50 (HCov OC43; [2]) [µM]	also measured
C[C@@]1(O)C[C@H](C(=O)N(c2ccc(-c3ccccc3)cc2)C(C(=O)NC2CCC(F)(F)CC2)c2cncc(F)c2)N(C#N)C1 (single isomer, unassigned) [1330 Isomer 1]	< 2	< 2	< 2	
C[C@@]1(O)C[C@H](C(=O)N(c2ccc(-c3ccccc3)cc2)C(C(=O)NC2CCC(F)(F)CC2)c2cncc(F)c2)N(C#N)C1 (single isomer, unassigned) [1330 Isomer 2]	2 to 10	2 to 10	10 to 30	
O=C(NC1CCC(F)(F)CC1)C(c1cncc(F)c1)N(C(=O)c1cnc[nH]1)c1ccc(C2CC2)cc1F (single isomer, unassigned) [1336 Isomer 1, N-(4-cyclopropyl-2-fluorophenyl)-N-(2-((4,4-difluorocyclohexyl)amino)-1-(5-fluoropyridin-3-yl)-2-oxoethyl)-1H-imidazole-5-carboxamide]	10 to 30	2 to 10		IC50 (HCov OC43; [3]): > 30 µM
O=C(NC1CCC(F)(F)CC1)C(c1cncc(F)c1)N(C(=O)c1cnc[nH]1)c1ccc(C2CC2)cc1F (single isomer, unassigned) [1336 Isomer 2, N-(4-cyclopropyl-2-fluorophenyl)-N-(2-((4,4-difluorocyclohexyl)amino)-1-(5-fluoropyridin-3-yl)-2-oxoethyl)-1H-imidazole-5-carboxamide]	10 to 30	10 to 30	> 30	
O=C(NC1CCC(F)(F)CC1)C(c1cncc(F)c1)N(C(=O)c1cnc[nH]1)c1ccc(S(F)(F)(F)(F)F)cc1 (single isomer, unassigned) [1337 Isomer 1, N-[2-[(4,4-difluorocyclohexyl)amino]-1-(5-fluoro-3-pyridyl)-2-oxo-ethyl]-N-[4-(pentafluoro-λ6-sulfanyl)phenyl]-1H-imidazole-5-carboxamide]	10 to 30	2 to 10		IC50 (HCov OC43; [3]): > 30 µM
O=C(NC1CCC(F)(F)CC1)C(c1cncc(F)c1)N(C(=O)c1cnc[nH]1)c1ccc(S(F)(F)(F)(F)F)cc1 (single isomer, unassigned) [1337 Isomer 2, N-[2-[(4,4-difluorocyclohexyl)amino]-1-(5-fluoro-3-pyridyl)-2-oxo-ethyl]-N-[4-(pentafluoro-λ6-sulfanyl)phenyl]-1H-imidazole-5-carboxamide]	10 to 30		> 30	EC50 (229E Mpro; read-out: 229E Mpro EC50): 2 to 10 µM
C[C@H](NC(=O)C(c1cncc(F)c1)N(C(=O)[C@H]1C[C@@](C)(O)CN1C#N)c1ccc(-c2ccccc2)cc1)c1ccccc1 (single isomer, unassigned) [1345 Isomer 1]	< 2	< 2	< 2	
C[C@H](NC(=O)C(c1cncc(F)c1)N(C(=O)[C@H]1C[C@@](C)(O)CN1C#N)c1ccc(-c2ccccc2)cc1)c1ccccc1 (single isomer, unassigned) [1345 Isomer 2]	2 to 10	10 to 30	10 to 30	
C[C@H](NC(=O)C(c1cccnc1)N(C(=O)c1ccco1)c1ccc(-c2ccccc2)cc1)c1ccccc1 (single isomer, unassigned) [1353 Isomer 1]	< 2	< 2		IC50 (HCov OC43; [3]): > 30 µM
C[C@H](NC(=O)C(c1cccnc1)N(C(=O)c1ccco1)c1ccc(-c2ccccc2)cc1)c1ccccc1 (single isomer, unassigned) [1353 Isomer 2]	> 30	> 30	> 30	
C[C@H](NC(=O)C(c1cnccn1)N(C(=O)c1ccco1)c1ccc(-c2ccccc2)cc1)c1ccccc1 (single isomer, unassigned) [1355 Isomer 1]	< 2	2 to 10		IC50 (HCov OC43; [3]): > 30 µM
C[C@H](NC(=O)C(c1cnccn1)N(C(=O)c1ccco1)c1ccc(-c2ccccc2)cc1)c1ccccc1 (single isomer, unassigned) [1355 Isomer 2]	< 2		> 30	EC50 (229E Mpro; read-out: 229E Mpro EC50): 2 to 10 µM
CC(C)(C)c1ccc(N(C(=O)[C@H]2CCC(C)(C)N2C#N)C(C(=O)NC2CCCCC2)c2cccnc2)cc1 (single isomer, unassigned) [Compound 262 Isomer 1]	> 30	> 30		IC50 (HCov OC43; read-out: OC43 IC50 (uM) MEDIAN, median, listed as 262 Isomer 1): > 30 µM
CC(C)(C)c1ccc(N(C(=O)[C@H]2CCC(C)(C)N2C#N)C(C(=O)NC2CCCCC2)c2cccnc2)cc1 (single isomer, unassigned) [Compound 262 Isomer 2]	2 to 10	< 2		IC50 (HCov OC43; read-out: OC43 IC50 (uM) MEDIAN, median, listed as 262 Isomer 2): 10 to 30 µM
CC(C)(C)c1ccc(N(C(=O)[C@H]2CC(=O)CN2C#N)C(C(=O)NC2CCCCC2)c2cccnc2)cc1 (single isomer, unassigned) [Compound 278 Isomer 1]	2 to 10	< 2		IC50 (HCov OC43; [3]): 10 to 30 µM
CC1(O)C[C@H](C(=O)N(c2ccc(C(C)(C)C)cc2)C(C(=O)NC2CCCCC2)c2cccnc2)N(C#N)C1 (single isomer, unassigned) [Compound 284 Isomer 1]	2 to 10			EC50 (229E Mpro; read-out: 229E Mpro EC50): < 2 µM; IC50 (HCov OC43; read-out: OC43 IC50 (uM) MEDIAN, median, listed as 284 Isomer 1): 10 to 30 µM

Structure (SMILES)	IC50 [1] [µM]	EC50 (229E Mpro; 229E Mpro EC50) [µM]	IC50 (HCov OC43; [2]) [µM]	also measured
CO[C@@H]1C[C@H](C(=O)N(c2ccc(C(C)(C)C)cc2)C(C(=O)NC2CCCCC2)c2cccnc2)N(C#N)C1 (single isomer, unassigned) [Compound 292 Isomer 1]	2 to 10	< 2		IC50 (HCov OC43; [3]): 2 to 10 µM
CO[C@H]1C[C@H](C(=O)N(c2ccc(C(C)(C)C)cc2)C(C(=O)NC2CCCCC2)c2cccnc2)N(C#N)C1 (single isomer, unassigned) [Compound 293 Isomer 2]	10 to 30	2 to 10		IC50 (HCov OC43; read-out: OC43 IC50 (uM) MEDIAN, median, listed as 293 Isomer 2): 10 to 30 µM
CC(C)(C)O[C@@H]1C[C@H](C(=O)N(c2ccc(C(C)(C)C)cc2)C(C(=O)NC2CCCCC2)c2cccnc2)N(C#N)C1 (single isomer, unassigned) [Compound 299 Isomer 1]	10 to 30	10 to 30		IC50 (HCov OC43; read-out: OC43 IC50 (uM) MEDIAN, median, listed as 299 Isomer 1): 10 to 30 µM
CC(C)(C)c1ccc(N(C(=O)[C@H]2C[C@H](Oc3ccccc3)CN2C#N)C(C(=O)NC2CCCCC2)c2cccnc2)cc1 (single isomer, unassigned) [Compound 308 Isomer 1]	> 30	> 30		IC50 (HCov OC43; [3]): > 30 µM
CC(C)(C)c1ccc(N(C(=O)[C@H]2Cc3ccccc3CN2C#N)C(C(=O)NC2CCCCC2)c2cccnc2)cc1 (single isomer, unassigned) [Compound 374 Isomer 1]	> 30	> 30		IC50 (HCov OC43; read-out: OC43 IC50 (uM) MEDIAN, median, listed as 374 Isomer 1): > 30 µM
CC(C)(C)c1ccc(N(C(=O)[C@H]2Cc3ccccc3CN2C#N)C(C(=O)NC2CCCCC2)c2cccnc2)cc1 (single isomer, unassigned) [Compound 374 Isomer 2]	< 2	< 2		IC50 (HCov OC43; read-out: OC43 IC50 (uM) MEDIAN, median, listed as 374 Isomer 2): 2 to 10 µM
COc1ccc(NC(=O)C(c2cccnc2)N(C(=O)[C@H]2CCCN2C#N)c2ccc(C(C)(C)C)cc2)cn1 (single isomer, unassigned) [Compound 407 Isomer 1]	< 2	< 2		IC50 (HCov OC43; read-out: OC43 IC50 (uM) MEDIAN, median, listed as 407 Isomer 1): 2 to 10 µM
COc1ccc(NC(=O)C(c2cccnc2)N(C(=O)[C@H]2CCCN2C#N)c2ccc(C(C)(C)C)cc2)cn1 (single isomer, unassigned) [Compound 407 Isomer 2]	> 30	10 to 30		IC50 (HCov OC43; read-out: OC43 IC50 (uM) MEDIAN, median, listed as 407 Isomer 2): > 30 µM
CC(C)(C)c1ccc(N(C(=O)[C@H]2CCCN2C#N)C(C(=O)NCC2COC2)c2cccnc2)cc1 (single isomer, unassigned) [Compound 419 Isomer 2]	2 to 10		2 to 10	EC50 (229E Mpro; read-out: 229E Mpro EC50): < 2 µM
COC(C)(C)CNC(=O)C(c1cccnc1)N(C(=O)[C@H]1CCCN1C#N)c1ccc(C(C)(C)C)cc1 (single isomer, unassigned) [Compound 427 Isomer 1]	10 to 30	2 to 10		IC50 (HCov OC43; read-out: OC43 IC50 (uM) MEDIAN, median, listed as 427 Isomer 1): > 30 µM
CN(C)CCNC(=O)C(c1cccnc1)N(C(=O)[C@H]1CCCN1C#N)c1ccc(C(C)(C)C)cc1 (single isomer, unassigned) [Compound 435 Isomer 2]	10 to 30			EC50 (229E Mpro; read-out: 229E Mpro EC50): < 2 µM; IC50 (HCov OC43; read-out: OC43 IC50 (uM) MEDIAN, median, listed as 435 Isomer 2): 10 to 30 µM
CC(C)(C)c1ccc(N(C(=O)[C@H]2CCCN2C#N)C(C(=O)NCc2ccncc2)c2cccnc2)cc1 (single isomer, unassigned) [Compound 439 Isomer 1]	2 to 10	< 2		IC50 (HCov OC43; [3]): 10 to 30 µM
CC(C)(C)c1ccc(N(C(=O)[C@H]2CCCN2C#N)C(C(=O)NCc2ccncc2)c2cccnc2)cc1 (single isomer, unassigned) [Compound 439 Isomer 2]	2 to 10		10 to 30	EC50 (229E Mpro; read-out: 229E Mpro EC50): < 2 µM
Cc1c[nH]c2cc(N(C(=O)[C@H]3C[C@@H](O)CN3C#N)C(C(=O)NC3CCC(F)(F)CC3)c3cncc(F)c3)ccc12 (single isomer, unassigned) [Compound 747b Isomer 2]	2 to 10		2 to 10	EC50 (229E Mpro; read-out: 229E Mpro EC50): < 2 µM
N#CN1C[C@H](O)C[C@@H]1C(=O)N(c1ccc(C2CC2)cc1F)C(C(=O)NC1CCCCC1)c1cccnc1 (single isomer, unassigned) [Compound 763 Isomer 1]	< 2	< 2		IC50 (HCov OC43; [3]): < 2 µM
